Measured values reported in patent publication US20050004126A1 (priority 2001, published 2005).

What follows are molecules tested against MMP-13CD (catalytic domain of collagenase 3) (Homo sapiens, UniProt P45452) (assay: Thiopeptolide hydrolysis assay, MMP-13). Settings: MMP13 IC50 μM, Table IVb.
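Also: inhibition of enzymatic thiopeptolide substrate cleavage (100 µM) in pH 6.0 MES buffer with CaCl2 and DTNB, comparing hydrolysis with versus without inhibitor.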

Row | IC50 [µM] | SMILES
1 | 0.1 | CCn1c(=O)n(Cc2cccc(F)c2)c(=O)c2cc(C(=O)NCc3ccncc3)ccc21
2 | 0.36 | CCn1c(=O)n(Cc2cccc(F)c2)c(=O)c2cc(C(=O)NCc3cccnc3)ccc21
3 | 0.025 | COc1ccc(CNC(=O)c2ccc3c(c2)c(=O)n(Cc2ccc(-c4ccccc4-c4nnn[nH]4)cc2)c(=O)n3C)cc1
4 | 0.59 | COc1ccc(CNC(=O)c2ccc3c(c2)c(=O)n(CCCc2ccccc2)c(=O)n3C)cc1
5 | 0.0015 | COc1ccc(CNC(=O)c2ccc3c(c2)c(=O)n(Cc2ccc(-c4noc(=O)[nH]4)cc2)c(=O)n3C)cc1
6 | 0.008 | COc1ccc(CNC(=O)c2ccc3c(c2)c(=O)n(Cc2ccc(S(N)(=O)=O)cc2)c(=O)n3C)cc1
7 | 0.095 | COc1ccc(CNC(=O)c2ccc3c(c2)c(=O)n(C/C=C/c2cccnc2)c(=O)n3C)cc1
8 | 0.035 | COc1ccc(CNC(=O)c2ccc3c(c2)c(=O)n(C/C=C/c2ccncc2)c(=O)n3C)cc1
9 | 0.43 | COc1ccc(CNC(=O)c2ccc3c(c2)c(=O)n(Cc2ccccn2)c(=O)n3C)cc1
10 | 0.046 | COc1ccc(CNC(=O)c2ccc3c(c2)c(=O)n(Cc2cccnc2)c(=O)n3C)cc1
11 | 5.4 | COc1ccc(CNC(=O)c2ccc3c(c2)c(=O)n(CC2CCCN(C)C2)c(=O)n3C)cc1 (stereo not drawn)
12 | 9.4 | CC(c1cccc2ccccc12)n1c(=O)c2cc(C(=O)NCc3ccc4c(c3)OCO4)ccc2n(C)c1=O (stereo not drawn)
13 | 9.3 | COc1ccc(CNC(=O)c2ccc3c(c2)c(=O)n(CCN2CCOCC2)c(=O)n3C)cc1
14 | 0.0044 | CNS(=O)(=O)c1ccc(Cn2c(=O)c3cc(C(=O)NCc4ccc(OC)cc4)ccc3n(C)c2=O)cc1
15 | 0.014 | COc1ccc(CNC(=O)c2ccc3c(c2)c(=O)n(Cc2ccc([N+](=O)[O-])cc2)c(=O)n3C)cc1
16 | 0.0033 | COc1ccc(CNC(=O)c2ccc3c(c2)c(=O)n(Cc2ccc(C4(C(=O)O)CC4)cc2)c(=O)n3C)cc1
17 | 0.18 | Cn1c(=O)c2cc(C(=O)NCc3ccc4c(c3)OCO4)ncc2n(C)c1=O
18 | 0.001 | COc1ccc(CNC(=O)c2ccc3c(c2)c(=O)n(Cc2ccc(C(=O)O)c(F)c2)c(=O)n3C)cc1
19 | 0.5 | COc1ccc(CNC(=O)c2ccc3c(c2)c(=O)n(Cc2ccc(C(=O)OCCN(C)C)c(OC)c2)c(=O)n3C)cc1
20 | 0.385 | Cn1c(=O)n(Cc2ccccc2)c(=O)c2cc(C(=O)OC/C=C/c3ccncc3)ccc21
21 | 0.34 | Cn1c(=O)n(Cc2ccccc2)c(=O)c2cc(C(=O)OC/C=C/c3cccnc3)ccc21
22 | 3.4 | Cn1c(=O)n(Cc2ccccc2)c(=O)c2cc(C(=O)CSc3ccncc3)ccc21

Row | IC50 [µM] | SMILES
23 | 1.95 | COc1ccc(CNC(=O)c2ccc3c(c2)c(=O)n(CC(N)=O)c(=O)n3C)cc1
24 | 0.042 | COc1ccc(CNC(=O)c2ccc3c(c2)c(=O)n(CC2CCCCC2)c(=O)n3C)cc1
25 | 0.95 | COc1ccc(CNC(=O)c2ccc3c(c2)c(=O)n(CC2CC2)c(=O)n3C)cc1
26 | 6.35 | COc1ccc(CNC(=O)c2ccc3c(c2)c(=O)n(CCO)c(=O)n3C)cc1
27 | 1.35 | COCCn1c(=O)c2cc(C(=O)NCc3ccc(OC)cc3)ccc2n(C)c1=O
28 | 3.64 | CCN(CC)c1ccc(C(=O)Cn2c(=O)c3cc(C(=O)NCc4ccc(OC)cc4)ccc3n(C)c2=O)cc1
29 | 0.025 | COc1ccc(CNC(=O)c2ccc3c(c2)c(=O)n(Cc2ccc(-c4ccccc4C#N)cc2)c(=O)n3C)cc1
30 | 0.012 | COc1ccc(CNC(=O)c2ccc3c(c2)c(=O)n(Cc2ccc(F)c(Cl)c2)c(=O)n3C)cc1
31 | 0.027 | COc1ccc(CNC(=O)c2ccc3c(c2)c(=O)n(Cc2cccc(C#N)c2)c(=O)n3C)cc1
32 | 0.017 | Cn1c(=O)n(Cc2cccc(F)c2)c(=O)c2cc(C(=O)NCc3ccncc3)ccc21
33 | 0.0058 | COc1cc(CNC(=O)c2ccc3c(c2)c(=O)n(Cc2cccc(F)c2)c(=O)n3C)ccn1
34 | 0.067 | Cn1c(=O)n(Cc2cccc(F)c2)c(=O)c2cc(C(=O)NCc3cccnc3)ccc21
35 | 0.0079 | COc1ccc(CNC(=O)c2ccc3c(c2)c(=O)n(Cc2cccc(F)c2)c(=O)n3C)cc1
36 | 0.021 | COc1cccc(CNC(=O)c2ccc3c(c2)c(=O)n(Cc2cccc(F)c2)c(=O)n3C)c1
37 | 0.023 | COc1ccc(CNC(=O)c2ccc3c(c2)c(=O)n(Cc2cccc(OC)c2)c(=O)n3C)cc1
38 | 0.026 | Cn1c(=O)n(Cc2ccc(F)c(Cl)c2)c(=O)c2cc(C(=O)NCc3ccncc3)ccc21
39 | 0.067 | Cn1c(=O)n(Cc2ccc(F)c(F)c2)c(=O)c2cc(C(=O)NCc3cccnc3)ccc21
40 | 0.032 | Cn1c(=O)n(Cc2ccc(F)c(F)c2)c(=O)c2cc(C(=O)NCc3ccncc3)ccc21
41 | 0.0098 | COc1ccc(CNC(=O)c2ccc3c(c2)c(=O)n(Cc2ccc(F)c(F)c2)c(=O)n3C)cc1
42 | 0.0093 | COc1ccc(CNC(=O)c2ccc3c(c2)c(=O)n(Cc2ccc(N)cc2)c(=O)n3C)cc1
43 | 0.07 | COc1ccc(CNC(=O)c2ccc3c(c2)c(=O)n(Cc2ccc(CN)cc2)c(=O)n3C)cc1
44 | 0.013 | COc1ccc(CNC(=O)c2ccc3c(c2)c(=O)n(Cc2ccc(Br)cc2)c(=O)n3C)cc1

Row | IC50 [µM] | SMILES
45 | 0.0076 | COc1cc(CNC(=O)c2ccc3c(c2)c(=O)n(Cc2ccc(Br)cc2)c(=O)n3C)ccn1
46 | 0.0043 | COc1cccc(CNC(=O)c2ccc3c(c2)c(=O)n(Cc2ccc(Cl)cc2)c(=O)n3C)c1
47 | 0.011 | COc1cc(CNC(=O)c2ccc3c(c2)c(=O)n(Cc2ccc(Cl)cc2)c(=O)n3C)ccn1
48 | 0.093 | Cn1c(=O)n(Cc2ccc(Cl)cc2)c(=O)c2cc(C(=O)NCc3cccnc3)ccc21
49 | 0.053 | Cn1c(=O)n(Cc2ccc(Cl)cc2)c(=O)c2cc(C(=O)NCc3ccncc3)ccc21
50 | 0.0011 | COc1ccc(CNC(=O)c2cc3c(=O)n(Cc4ccc(C#N)cc4)c(=O)n(C)c3cn2)cc1
51 | 0.008 | COc1ccc(CNC(=O)c2ccc3c(c2)c(=O)n(Cc2ccc(C#N)cc2)c(=O)n3C)cc1
52 | 0.012 | COc1ccc(CNC(=O)c2ccc3c(c2)c(=O)n(Cc2ccc(C(=O)N(C)C)cc2)c(=O)n3C)cc1
53 | 0.008 | COc1ccc(CNC(=O)c2ccc3c(c2)c(=O)n(Cc2ccc(CC(=O)N(C)C)cc2)c(=O)n3C)cc1
54 | 0.007 | COc1ccc(CNC(=O)c2ccc3c(c2)c(=O)n(Cc2ccc(S(=O)(=O)N(C)C)cc2)c(=O)n3C)cc1
55 | 0.071 | Cn1c(=O)n(Cc2ccc(F)cc2)c(=O)c2cc(C(=O)NCc3ccncc3)ccc21
56 | 0.011 | COc1cc(CNC(=O)c2ccc3c(c2)c(=O)n(Cc2ccc(F)cc2)c(=O)n3C)ccn1
57 | 0.0046 | COc1cccc(CNC(=O)c2ccc3c(c2)c(=O)n(Cc2ccc(F)cc2)c(=O)n3C)c1
58 | 0.12 | Cn1c(=O)n(Cc2ccc(F)cc2)c(=O)c2cc(C(=O)NCc3cccnc3)ccc21
59 | 0.0145 | COc1ccc(CNC(=O)c2ccc3c(c2)c(=O)n(Cc2ccc(F)cc2)c(=O)n3C)cc1
60 | 0.0125 | COc1ccc(CNC(=O)c2ccc3c(c2)c(=O)n(Cc2ccc(S(C)(=O)=O)cc2)c(=O)n3C)cc1
61 | 0.055 | COc1ccc(CNC(=O)c2ccc3c(c2)c(=O)n(Cc2ccc(S(=O)(=O)NCCN(C)C)cc2)c(=O)n3C)cc1
62 | 0.018 | COc1ccc(CNC(=O)c2ccc3c(c2)c(=O)n(Cc2cccc(C(=O)O)c2)c(=O)n3C)cc1
63 | 0.0011 | COc1cccc(CNC(=O)c2cc3c(=O)n(Cc4ccc(C(=O)O)cc4)c(=O)n(C)c3cn2)c1
64 | 0.002 | Cn1c(=O)n(Cc2ccc(C(=O)O)cc2)c(=O)c2cc(C(=O)NCc3ccc(O)cc3)ccc21
65 | 1.4 | COc1ccc(CNC(=O)c2ccc3c(c2)c(=O)n(CC=CC(=O)O)c(=O)n3C)cc1
66 | 0.11 | COc1ccc(CNC(=O)c2ccc3c(c2)c(=O)n(Cc2ccc(C(=O)OCCN(C)C)c(C)c2)c(=O)n3C)cc1

Row | IC50 [µM] | SMILES
67 | 1.15 | COc1ccc(CNC(=O)c2ccc3c(c2)c(=O)n(CCCC(=O)O)c(=O)n3C)cc1
68 | 0.00074 | COc1ccc(CNC(=O)c2cc3c(=O)n(Cc4ccc(C(=O)O)cc4)c(=O)n(C)c3cn2)cc1
69 | 0.039 | COc1ccc(CNC(=O)c2ccc3c(c2)c(=O)n(Cc2ccc(C(=O)OCOC(=O)C(NC(=O)C(N)C(C)C)C(C)C)cc2)c(=O)n3C)cc1 (stereo not drawn)
70 | 0.037 | COc1ccc(CNC(=O)c2ccc3c(c2)c(=O)n(Cc2ccc(C(=O)OCCN(C)C)cc2)c(=O)n3C)cc1
71 | 0.088 | COc1ccc(CNC(=O)c2ccc3c(c2)c(=O)n(Cc2ccc(C(=O)OCC(=O)OC(C)(C)C)cc2)c(=O)n3C)cc1
72 | 0.013 | COc1ccc(CNC(=O)c2ccc3c(c2)c(=O)n(Cc2ccc(-c4ccccc4C(=O)O)cc2)c(=O)n3C)cc1
73 | 0.0084 | COc1ccc(CNC(=O)c2ccc3c(c2)c(=O)n(Cc2ccc(C(=O)O)s2)c(=O)n3C)cc1
74 | 0.057 | COc1ccc(CNC(=O)c2ccc3c(c2)c(=O)n(Cc2ccc(C(=O)O)o2)c(=O)n3C)cc1
75 | 0.009 | CCOC(=O)c1ccc(Cn2c(=O)c3cc(C(=O)NCc4ccc(OC)cc4)ccc3n(C)c2=O)cc1F
76 | 2.55 | CCOC(=O)CCCn1c(=O)c2cc(C(=O)NCc3ccc(OC)cc3)ccc2n(C)c1=O
77 | 0.65 | CCOC(=O)Cn1c(=O)c2cc(C(=O)NCc3ccc(OC)cc3)ccc2n(C)c1=O
78 | 0.12 | COC(=O)c1cccc(Cn2c(=O)c3cc(C(=O)NCc4ccc(OC)cc4)ccc3n(C)c2=O)c1
79 | 2.1 | COC(=O)CCn1c(=O)c2cc(C(=O)NCc3ccc(OC)cc3)ccc2n(C)c1=O
80 | 0.084 | COC(=O)c1ccccc1-c1ccc(Cn2c(=O)c3cc(C(=O)NCc4ccc(OC)cc4)ccc3n(C)c2=O)cc1
81 | 0.29 | COC(=O)c1ccc(Cn2c(=O)c3cc(C(=O)NCc4ccc(OC)cc4)ccc3n(C)c2=O)o1
82 | 0.021 | COC(=O)c1ccc(Cn2c(=O)c3cc(C(=O)NCc4ccc(OC)cc4)ccc3n(C)c2=O)s1
83 | 0.0034 | COC(=O)Cc1ccc(Cn2c(=O)c3cc(C(=O)NCc4ccc(OC)cc4)ccc3n(C)c2=O)cc1
84 | 8 | COc1ccc(CNC(=O)c2ccc3c(c2)c(=O)n(-c2ccc(CC(=O)O)cc2)c(=O)n3C)cc1
85 | 0.0022 | COc1ccc(CNC(=O)c2ccc3c(c2)c(=O)n(Cc2ccc(CC(=O)O)cc2)c(=O)n3C)cc1
86 | 0.315 | COC(=O)/C=C/Cn1c(=O)c2cc(C(=O)NCc3ccc(OC)cc3)ccc2n(C)c1=O
87 | 0.0665 | COc1ccc(CNC(=O)c2ccc3c(c2)c(=O)n(Cc2ccc(C4(C(=O)OC(C)(C)C)CC4)cc2)c(=O)n3C)cc1
